Experimental findings from patent US9458176B2, “Tetrahydroimidazo(1,5-D)[1,4]oxazepine derivative” (Eisai R&D Management Co., Ltd., priority 2013, dated 2016) are described below.

A word on the IC50: it is the point on the concentration scale where inhibition reaches its midpoint. A high value points to a need for much substance.

human mGluR2, sequence (Q14416 19-872): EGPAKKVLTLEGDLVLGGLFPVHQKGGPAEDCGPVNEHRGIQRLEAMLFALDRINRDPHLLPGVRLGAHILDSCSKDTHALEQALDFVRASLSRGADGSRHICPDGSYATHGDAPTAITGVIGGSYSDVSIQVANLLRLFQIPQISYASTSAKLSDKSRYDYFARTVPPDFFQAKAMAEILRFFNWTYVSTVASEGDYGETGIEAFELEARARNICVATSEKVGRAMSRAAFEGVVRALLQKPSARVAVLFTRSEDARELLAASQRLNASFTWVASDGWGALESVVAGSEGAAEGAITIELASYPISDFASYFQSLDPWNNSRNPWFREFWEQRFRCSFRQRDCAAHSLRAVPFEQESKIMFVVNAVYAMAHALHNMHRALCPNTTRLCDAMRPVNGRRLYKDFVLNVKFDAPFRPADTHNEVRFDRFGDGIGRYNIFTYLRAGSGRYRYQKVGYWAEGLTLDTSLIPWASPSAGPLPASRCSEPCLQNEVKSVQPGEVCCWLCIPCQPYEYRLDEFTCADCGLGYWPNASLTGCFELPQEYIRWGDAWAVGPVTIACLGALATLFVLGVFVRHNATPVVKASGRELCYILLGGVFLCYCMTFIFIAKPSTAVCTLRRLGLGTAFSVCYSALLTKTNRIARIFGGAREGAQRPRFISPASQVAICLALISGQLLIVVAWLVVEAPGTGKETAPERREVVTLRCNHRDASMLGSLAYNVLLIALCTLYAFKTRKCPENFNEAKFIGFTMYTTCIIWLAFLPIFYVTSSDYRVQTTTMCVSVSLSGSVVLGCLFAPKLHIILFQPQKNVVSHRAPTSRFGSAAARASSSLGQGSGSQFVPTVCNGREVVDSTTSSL

The first experiment concerns the target human mGluR2 (Homo sapiens (Human), UniProt Q14416). Put plainly: [35S]GTPγS binding assay (Affinity to mGluR2). The conditions noted are these: cell membrane fraction of HEK293 cells stably expressing human mGluR2; glutamic acid 10 μM. The class given is biochemical. The protocol:
(Preparation of Cell Membrane Fraction of HEK293 Cells Stably Expressing Human Metabotropic Glutamate Receptor 2 (mGluR2))
HEK293 cells stably expressing human mGluR2 and human glutamate transporter SLC1A3 were cultured in a Dulbecco's modified Eagle's medium with 10% fetal bovine serum (50 units/mL of penicillin, 50 μg/mL of streptomycin, 60 μg/mL of geneticin, 400 μg/mL of hygromycin B and 2 mM of glutamine) at 37° C. under 5% CO2. Confluent cell cultures were washed twice with PBS(−), and then scraped off with a cell scraper, and subjected to centrifugal separation at 4° C. and 1500 rpm for 5 minutes for collecting cells. The centrifuged sediment (cell pellet) was homogenized in a 20 mM HEPES buffer containing 10 mM EDTA (pH 7.4) by using sonicator and centrifuged at 4° C. and 1500×g for 30 minutes. The supernatant (soluble fraction) was subjected to the centrifugal separation at 4° C. and 40,000×g for 30 minutes, and thus, insoluble fraction was obtained. After additional centrifugally washing the obtained fraction with 20 mM HEPES buffer containing 10 mM EDTA (pH 7.4), the pellet was centrifugally suspended with a 20 mM HEPES buffer containing 0.1 mM EDTA, and the cell membrane fraction was obtained by the centrifugal separation at 4° C. and 40,000×g for 30 minutes. The thus obtained cell membrane fraction was suspended in a 20 mM HEPES buffer containing 0.1 mM EDTA in a protein concentration of 3 mg/mL, which was stored at −80° C.
([^35S]GTPγS Binding Assay)
The frozen cell membrane fraction prepared as described above was thawed before use, and the resultant was diluted with a buffer for a binding assay (final concentrations: 20 mM HEPES, 100 mM NaCl, 1 mM MgCl2, 3 μM GDP, 300 μg/mL saponin, 0.1% BSA). The compound of each example was added to a cell membrane fraction containing 1.8 to 3 μg/assay of membrane protein on a plate, followed by incubation at room temperature for 30 minutes. Thereafter, with glutamic acid (in a final concentration of 10 μM) added thereto, incubation was performed at room temperature for 15 minutes, and thereafter, [^35S]GTPγS (in a final concentration of 0.8 kBq) and 588 μg WGA-SPA beads were added thereto, followed by incubation at room temperature for 1 hour. After the incubation, the plate was subjected to the centrifugal separation at 2,500 rpm and room temperature, and then, membrane cell binding radioactivity was measured with a top count.
A [^35S]GTPγS binding amount obtained by performing the above-described reaction in the absence of glutamic acid was defined as nonspecific binding, and a difference from a [^35S]GTPγS binding amount obtained in the presence of glutamic acid was defined as specific binding. On the basis of ratios of inhibiting the specific binding at various concentrations of the compounds of the respective examples, inhibition curves were obtained. Concentrations of the compounds of the respective examples at which the specific [^35S]GTPγS binding amount was suppressed by 50% (IC50 values) were calculated on the basis of the inhibition curves and shown in Tables 8 and 9.
For orientation: GTPγS resists hydrolysis and so accumulates on activated G proteins.
Turning to `CCOc1ccc(-c2nc(-c3cc(C)nc(C)c3)c3n2C[C@@H](CF)OCC3)cc1Cl` [Example 37, (S)-3-(3-chloro-4-ethoxyphenyl)-1-(2,6-dimethylpyridin-4-yl)-6-(fluoromethyl)-5,6,8,9-tetrahydroimidazo[1,5-d][1,4]oxazepine], the IC50 was 6 nM.
The same measure, in the same setting: next, `COc1cc(-c2nc(-c3cc(C)nc(C)c3)c3n2C[C@@H](C)OCC3)ccc1OC(F)(F)F` [Example 25, (R)-1-(2,6-dimethylpyridin-4-yl)-3-(3-methoxy-4-(trifluoromethoxy)phenyl)-6-methyl-5,6,8,9-tetrahydroimidazo[1,5-d][1,4]oxazepine]: 3.2 nM; `Cc1cc(-c2nc(-c3ccc(Cl)c(C#N)c3)n3c2CCOCC3)cc(C)n1` [Example 111]: 25.2 nM.
The same measure, in the same setting: next, `Cc1cc(-c2nc(-c3ccc(Cl)c(Cl)c3)n3c2CCO[C@H](CF)C3)cc(C)n1` [Example 76]: 20.9 nM; `Cc1cc(-c2nc(-c3ccc(OC(F)F)c(C)c3)n3c2CCO[C@H](CF)C3)ccn1` [Example 40, (S)-3-(4-(difluoromethoxy)-3-methylphenyl)-6-(fluoromethyl)-1-(2-methylpyridin-4-yl)-5,6,8,9-tetrahydroimidazo[1,5-d][1,4]oxazepine]: 4.7 nM; `Cc1cc(-c2nc(-c3ccc(OC(F)(F)F)c(Cl)c3)n3c2CCO[C@H](C)C3)cc(C)n1` [Example 133]: 4.4 nM.
The same measure, in the same setting: next, `COc1cc(-c2nc(-c3ccnc(C)c3)c3n2C[C@@H](C)OCC3)ccc1C(F)(F)F` [Example 8, (R)-3-(3-methoxy-4-(trifluoromethyl)phenyl)-6-methyl-1-(2-methylpyridin-4-yl)-5,6,8,9-tetrahydroimidazo[1,5-d][1,4]oxazepine]: 13.2 nM.
`Cc1cc(-c2nc(-c3cccc(OC(F)(F)F)c3)n3c2CCO[C@H](C)C3)cc(C)n1` [Example 64] registered an IC50 of 31.2 nM.
Take `Cc1cc(-c2nc(-c3ccc(F)c(OCC(C)C)c3)n3c2CCOCC3)cc(C)n1` [Example 95]: the IC50 is 49.5 nM.
In turn, `Cc1cc(-c2nc(-c3ccc(OC(F)F)c(Cl)c3)n3c2CCO[C@H](C)C3)cc(C)n1` [Example 32, (R)-3-(3-chloro-4-(difluoromethoxy)phenyl)-1-(2,6-dimethylpyridin-4-yl)-6-methyl-5,6,8,9-tetrahydroimidazo[1,5-d][1,4]oxazepine] showed an IC50 of 2.8 nM.
`Cc1cc(-c2nc(-c3ccc(OC(F)(F)F)cc3)n3c2CCO[C@H](CF)C3)ccn1` [Example 70] showed an IC50 of 25.5 nM.
On to `Cc1cc(-c2nc(-c3ccc(F)c(OCCF)c3)n3c2CCO[C@H](C)C3)cc(C)n1` [Example 5, (R)-1-(2,6-dimethylpyridin-4-yl)-3-(4-fluoro-3-(2-fluoroethoxy)phenyl)-6-methyl-5,6,8,9-tetrahydroimidazo[1,5-d][1,4]oxazepine], for which the IC50 amounted to 26.5 nM.
The compound `Cc1cc(-c2nc(-c3ccc(OC4CC4)c(Cl)c3)n3c2CCOCC3)cc(C)n1` [Example 135] registered an IC50 of 36.9 nM.
Turning to `Cc1cc(-c2nc(-c3ccc(Cl)c(Cl)c3)n3c2CCO[C@H](CF)C3)ccn1` [Example 75], the IC50 was determined as 31 nM.
The compound `Cc1cc(-c2nc(-c3ccc(F)c(OCC4CCC4)c3)n3c2CCO[C@H](C)C3)ccn1` [Example 100] showed an IC50 of 25.3 nM.
Same read-out and setting: then `Cc1cc(-c2nc(-c3ccc(OC4CC4)c(C)c3)n3c2CCO[C@H](C)C3)cc(C)n1` [Example 20, (R)-3-(4-cyclopropoxy-3-methylphenyl)-1-(2,6-dimethylpyridin-4-yl)-6-methyl-5,6,8,9-tetrahydroimidazo[1,5-d][1,4]oxazepine], with 3.4 nM; and `Cc1cc(-c2nc(-c3ccc(C(F)F)c(Cl)c3)n3c2CCOCC3)cc(C)n1` [Example 137], with 18.7 nM.
The compound `CCOc1cc(-c2nc(-c3cc(C)nc(C)c3)c3n2C[C@@H](C)OCC3)ccc1C(F)(F)F` [Example 82] yielded an IC50 of 1.1 nM.
For `COc1cc(-c2nc(-c3cc(C)nc(C)c3)c3n2CCOCC3)ccc1Br` [Example 4, 3-(4-bromo-3-methoxyphenyl)-1-(2,6-dimethylpyridin-4-yl)-5,6,8,9-tetrahydroimidazo[1,5-d][1,4]oxazepine], the IC50 was 31.9 nM.
The same measure, in the same setting: then `Cc1cc(-c2nc(-c3ccc(OC4CC4)c(C)c3)n3c2CCO[C@H](CF)C3)cc(C)n1` [Example 22, (S)-3-(4-cyclopropoxy-3-methylphenyl)-1-(2,6-dimethylpyridin-4-yl)-6-(fluoromethyl)-5,6,8,9-tetrahydroimidazo[1,5-d][1,4]oxazepine], with 4.1 nM; and `COc1cc(-c2nc(-c3cc(C)nc(C)c3)c3n2C[C@@H](C)OCC3)ccc1C(F)F` [Example 128], with 9.1 nM; and `Cc1cc(-c2nc(-c3ccc(OC(F)F)c(C)c3)n3c2CCO[C@H](CF)C3)cc(C)n1` [Example 27, (S)-3-(4-(difluoromethoxy)-3-methylphenyl)-1-(2,6-dimethylpyridin-4-yl)-6-(fluoromethyl)-5,6,8,9-tetrahydroimidazo[1,5-d][1,4]oxazepine], with 3.5 nM.

The experiment is the same for the next values; noted with them: cell membrane fraction of HEK293 cells stably expressing human mGluR2; glutamic acid 10 μM; inhibition of specific [35S]GTPγS binding.
Compound `Cc1cc(-c2nc(-c3ccc(OC(F)F)c(CO)c3)n3c2CCO[C@H](C)C3)cc(C)n1` [Example 235] yielded an IC50 of 21.7 nM.
As to `COc1ccc(-c2nc(-c3cc(C)nc(C(F)F)c3)c3n2C[C@@H](C)OCC3)cc1Cl` [Example 190], the IC50 is 42.2 nM.
Still for that read-out and setting: then `COc1cc(-c2nc(-c3cc(C)nc(CF)c3)c3n2C[C@@H](CF)OCC3)ccc1C(F)(F)F` [Example 201], with 2.4 nM; and `COc1cc(-c2nc(-c3cc(C)nc(CO)c3)c3n2C[C@@H](CF)OCC3)ccc1OC(F)F` [Example 194], with 108 nM; and `COc1cc(-c2nc(-c3cc(C)nc(CF)c3)c3n2C[C@@H](CF)OCC3)ccc1OC(F)F` [Example 209], with 5.1 nM.
The same measure, in the same setting: next, `Cc1cc(-c2nc(-c3ccc(F)c(OC(F)(F)F)c3)n3c2CCO[C@H](C)C3)ccn1` [Example 158]: 44.6 nM.
On the same count and under the same terms, then `Cc1cc(-c2nc(-c3ccc(OC(F)F)c(F)c3)n3c2CCO[C@H](C)C3)ccn1` [Example 182], with 19.3 nM.
The compound `Cc1cc(-c2nc(-c3ccc(OC(F)(F)F)c(F)c3)n3c2CCO[C@H](CF)C3)cc(CO)n1` [Example 170] registered an IC50 of 43.1 nM. This IC50 is about 2.2-fold higher than that of the compound before.
The same measure, in the same setting: next, `Cc1cc(-c2nc(-c3ccc(OC(F)(F)F)c(C#N)c3)n3c2CCO[C@H](C)C3)cc(C)n1` [Example 168]: 4.2 nM.
The same measure, in the same setting: then `COc1cc(-c2nc(-c3ccnc(C)c3)c3n2C[C@@H](CF)OCC3)ccc1C(F)F` [Example 160], with 24.1 nM; and `Cc1cc(-c2nc(-c3ccc(OC(F)(F)F)c(CF)c3)n3c2CCO[C@H](C)C3)cc(C)n1` [Example 231], with 2.4 nM; and `Cc1cc(-c2nc(-c3ccc(OC(F)F)c(C)c3)n3c2CCO[C@H](CF)C3)cc(CF)n1` [Example 207], with 6 nM.
The same measure, in the same setting: then `Cc1cc(-c2nc(-c3ccc(C(F)F)c(Cl)c3)n3c2CCO[C@H](C)C3)cc(C)n1` [Example 146], with 22.2 nM; and `Cc1cc(-c2nc(-c3ccc(F)c(OC(F)(F)F)c3)n3c2CCO[C@H](C)C3)cc(C)n1` [Example 157], with 12.7 nM; and `Cc1cc(-c2nc(-c3ccc(OC(F)F)c(CF)c3)n3c2CCO[C@H](C)C3)cc(C)n1` [Example 234], with 1.9 nM.
`COc1cc(-c2nc(-c3ccnc(C)c3)c3n2C[C@@H](C)OCC3)ccc1F` [Example 141]: the IC50 was determined as 51.9 nM.
